Among the data in ChEMBL document CHEMBL3352603, “Synthesis and preliminary investigations into novel 1,2,3-triazole-derived androgen receptor antagonists inspired by bicalutamide” (Bioorg Med Chem Lett, 2014) are IC50 values, retold here.

The subject of experiment [1] is LNCaP. In words: Growth inhibition of human LNCAP cells. The format is functional, cell-based.
Experiment [2] in a line: Growth inhibition of human PC3 cells. The format is functional, cell-based. As to conditions: PC-3.

For `CC(O)(CS(=O)(=O)c1ccc(F)cc1)c1cn(-c2ccc(C#N)c(C(F)(F)F)c2)nn1` (racemic), the half-inhibitory concentration (IC50) was 45 µM in experiment [1] and more than 300 µM in experiment [2].
In the same order, the values of `CC(O)(CS(=O)(=O)c1ccc(F)cc1)c1cn(-c2ccc([N+](=O)[O-])c(C(F)(F)F)c2)nn1` (racemic) are 36 µM and more than 300 µM.
For `CCOC(=O)c1ccc(-n2cc(C(C)(O)CS(=O)(=O)c3ccc(F)cc3)nn2)cc1` (racemic), the IC50 in experiment [1] and in experiment [2] was more than 300 µM in each case.
As to `CC(O)(CS(=O)(=O)c1ccc(F)cc1)c1cn(-c2ccc(C(=O)O)cc2)nn1` (racemic), the IC50 in experiment [1] and in experiment [2] was more than 300 µM each time.
Regarding `CC(O)(CS(=O)(=O)c1ccccc1)c1cn(-c2ccc(C#N)c(C(F)(F)F)c2)nn1` (racemic), the figures for the IC50 in experiment [1] and in experiment [2] were 151 µM and 114 µM, respectively.
For `CC(O)(CS(=O)(=O)c1ccccc1)c1cn(-c2ccc([N+](=O)[O-])c(C(F)(F)F)c2)nn1` (racemic), in that order: 34 µM and 29 µM.
For `CC(O)(CS(=O)(=O)c1ccc(F)cc1)C(=O)Nc1ccc(C#N)c(C(F)(F)F)c1` (centres undefined) [BICALUTAMIDE], in that order: 30 µM and 58 µM.

As usually defined, the IC50 is the concentration at which inhibition is half-maximal.
